Values of other authors as cited in US8895756B2, “Bendamustine pharmaceutical compositions” (priority 2005, dated 2014).

Details: pure tertiary butanol vs pure acetic acid, dimethyl sulfoxide, methylhydroxy, water or TBA/water mixtures; cited from earlier work

In the case of CN(CC(N)=O)C(=O)N(CCCl)N=O [SarCNU], the “relative stability in solvents” value is given as “more stable in pure tertiary butanol”.
